Values of other authors as cited in patent publication EP0301423B1 (CHIESI FARMACEUTICI S.p.A., priority 1987, dated 1989).

Tests used:
coronary flow = conditions: mice
isolated coronary artery = conditions: mice

## CCNc1cc(C)nc2ncnn12 [TP1]
Coronary flow
  effect on coronary flow: increase in the coronary flow
Isolated coronary artery
  effect on the isolated coronary artery: relaxation of the isolated coronary artery
